Here are results for seven molecules from ChEMBL document CHEMBL2429810, “Heteroannelated and 7-deoxygenated goniofufurone mimics with antitumour activity: design, synthesis and preliminary SAR studies” (Bioorg Med Chem Lett, 2013).

The test system of one assay is MRC5. Put plainly: Antiproliferative activity against human MRC5 cells after 72 hrs by MTT assay. It is filed as cell-based. The conditions noted are these: MRC5, 72 h.
A further assay has as its system HL-60. Put plainly: Antiproliferative activity against human HL60 cells after 72 hrs by MTT assay. Format: functional, cell-based. The note with it: HL-60, 72 h.
The test system of another assay is HeLa. Put plainly: Antiproliferative activity against human HeLa cells after 72 hrs by MTT assay. Format: functional, cell-based.
For assay [1], the system named is Raji. Put plainly: Ratio of doxorubicin IC50 to compound IC50 for human Raji cells. Format: functional.
The next assay has as its system Jurkat. Put plainly: Antiproliferative activity against human Jurkat cells after 72 hrs by MTT assay. It is filed as functional, cell-based.
The test system of assay [2] is Raji. Put plainly: Antiproliferative activity against human Raji cells after 72 hrs by MTT assay. It is filed as functional, cell-based.
In another assay the test system is K562. Put plainly: Antiproliferative activity against human K562 cells after 72 hrs by MTT assay. Format: functional, cell-based. The conditions noted are these: K562, 72 h.

A value given as a limit tells only on which side of the number the result lay.

Molecule `O=C1C[C@H]2O[C@H](Cc3ccccc3)[C@H](O)[C@H]2O1` yielded an IC50 with MRC5 above 100 µM.
On to `O=C1C[C@H]2O[C@H]([C@H](O)c3ccccc3)[C@H](O)[C@H]2O1`, for which the IC50 in the assay on MRC5 and with HL-60 was above 100 µM in each case.
For the molecule `O=C1C[C@@H]2O[C@@H](Cc3ccccc3)[C@@H](O)[C@@H]2O1`, the 50% inhibitory concentration (IC50) in the assay with HeLa is 1.21 µM; in the assay with MRC5 it was above 100 µM; in the assay with Jurkat, 0.12 µM; in the assay with Raji [2], 0.03 µM; in the assay on K562, 0.02 µM; with HL-60, 0.17 µM. In the assay on Raji [1], the “Ratio IC50” value amounted to 100.
With `O=C1C[C@H]2O[C@H](Cc3ccccc3)[C@H](OCc3ccccc3)[C@H]2O1`, the IC50 in the assay with HeLa was 4.32 µM; in the assay on MRC5 it was above 100 µM; in the assay on Jurkat, 1.01 µM; in the assay with Raji [2] it was 9.48 µM; in the assay with K562 it was 0.14 µM; in the assay on HL-60, 0.56 µM.
On to `Cc1ccccc1[C@H](c1ccccc1)[C@H]1O[C@@H]2CC(=O)O[C@@H]2[C@H]1O`, for which the IC50 in the assay on HeLa is 11.4 µM; in the assay with MRC5 it was above 100 µM; in the assay on Jurkat, 21.4 µM; in the assay with Raji [2] it was 5.67 µM; in the assay with K562, 1.56 µM; in the assay on HL-60, 11.7 µM.
Turning to `O=C1C[C@H]2O[C@@H]3[C@@H](c4ccccc4)c4ccccc4CO[C@@H]3[C@H]2O1`, the IC50 in the assay on HeLa was above 100 µM; with MRC5 it was above 100 µM; in the assay with Jurkat it was 0.074 µM; with Raji [2] it was 0.46 µM; in the assay with K562, 1.43 µM; with HL-60, 0.78 µM.
Regarding `O=C1C[C@@H]2O[C@H]3[C@H](c4ccccc4)c4ccccc4CO[C@H]3[C@@H]2O1`, the IC50 in the assay on HeLa was 6.56 µM; in the assay on MRC5, above 100 µM; in the assay on Jurkat, 18.4 µM; in the assay on Raji [2], 15.9 µM; in the assay on K562 it was 1.21 µM; with HL-60, 11.7 µM.
